From patent publication US10456477B2, “Oligolactic acid conjugates and micelles with enhanced anticancer efficacy” (Wisconsin Alumni Research Foundation, priority 2016, dated 2019)
≈ marks a conversion by molar mass, not a printed value. Where “and” joins values, the source holds several entries; their conditions need not be identical. Equal values may be shown once. Read-outs that look alike come from different tables or passages of the source. One block for each compound: values may come before it.

Tests used:
[1] = Drug loading efficiency, drug loading content and aqueous solubility of PEG-b-PLA micelles by RP-HPLC; format: physicochemical
Description: The polymeric film was dissolved by addition of sterile water or PBS (10 mM, pH 7.4), followed by centrifugation for 5 min at 13,000 rpm and sterile filtration (0.22 μm (Coring, N.Y.)).

[2] = Hydrodynamic diameter of PEG-b-PLA micelles by dynamic light scattering; format: physicochemical
Description: Proton nuclear magnetic resonance (^1H NMR) data were recorded on a Varian Unity-Inova two-channel 400 MHz NMR spectrometer (Palo Alto, Calif.) with regulated temperature at 25° C. Chemical shifts (δ) were reported in parts per million (ppm) relative to residual protonated solvent resonance at 7.26 ppm for CDCl3. Mass spectrometry data was obtained using the Waters LCT (ESI-TOF) in the Chemical Instrumentation Center in the Department of Chemistry, University of Wisconsin-Madison. Samples were sprayed from a 10 mM NH4OAc/CH3CN solution. Reverse-phase HPLC (RP-HPLC) analysis was carried out using a Shimadzu Prominence HPLC system (Shimadzu, Japan) equipped with an LC-20AT pump, a SIL-20AC HT autosampler, a CTO-20AC column oven, and a SPD-M20A diode array detector. Sample was separated by a Waters Symmetry Shield™ RP18 column (4.6 mm×250 mm, 5 μm, 100 Å). 10 μL of sample was injected at a flow rate of 0.8 mL/min, column temperature at 25° C., and UV detection wavelength at 227 nm. The separation of o(LA)n-PTX conversion products was done in gradient mode with organic phase containing 100% CH3CN as solvent A, and aqueous phase containing 100% milliQ water as solvent B. Gradient elution was employed as follows: 0 min, 50% solvent A and 50% solvent B; 35 min, 95% solvent A and 5% solvent B; and 40 min for equilibration. Hydrodynamic diameters of PEG-b-PLA micelles were measured by dynamic light scattering (DLS) using a Zetasizer Nano-ZS (Malvern Instruments Inc., UK) at 25° C. with a detection angle of […] and a He—Ne ion laser as the light source (4 mW, 633 nm). Prior to measurements, PEG-b-PLA micelle solutions were diluted with milliQ water or PBS (10 mM, pH 7.4) to afford the level of PEG-b-PLA at ˜0.1 mg/mL and 1 mL of each sample was placed into a disposable sizing cuvette (BRAND Polystyrene Cuvettes). The cumulant method was used to curve-fit the correlation function, and the z-average diameter and polydispersity index (PDI) of PEG-b-PLA micelles were calculated from the Stokes-Einstein equation and the slope of the correlation function, respectively. All measurements were performed in triplicate.

[3] = Physical stability of drug- or conjugate-loaded PEG-b-PLA micelles (precipitation); settings: for Stability: PEG-b-PLA micelles; for time until SEL precipitated out of PEG-b-PLA micelles: micelles containing unconjugated SEL alone
Description: Instead, loading efficiency of PTX was low, ca. 21%, and drug loading for PEG-b-PLA micelles leveled off at 11.2% drug loading.
SEL drug loading for PEG-b-PLA micelles was 1% with a very low drug loading efficiency of 5%. […] In contrast, the PEG-b-PLA micelles containing unconjugated SEL were unstable and SEL precipitated out within about 5 minutes.

[4] = In vitro release from PEG-b-PLA micelles (dialysis cassette); format: physicochemical
Description: Four dialysis cassettes were placed in 4 L PBS solution (10 mM, pH 7.4) on a Corning Hotplate Stirrer (Corning, N.Y.) at 37° C. […] At each time point, a sample of 100 μL was withdrawn, and the cassettes were replenished with 100 μL of fresh PBS solution (10 mM, pH 7.4). The external medium was replaced with 4 L of fresh buffer at 2, 4, 8, 12, 24 and 48 h to approximate sink conditions.

[5] = test system: human A549 non-small lung cancer cells; experiment: In vitro cytotoxicity, CellTiter-Blue Cell Viability Assay; format: cell-based; settings: free form, 72 h
Description: All chemicals were purchased from Sigma-Aldrich (St. Louis, Mo.) and used as received. Analytical grade organic solvents and all other reagents were purchased from Fisher Scientific (Pittsburgh, Pa.). PTX was purchased from LC Laboratories (Woburn, Mass.). PEG-b-PLA was purchased from Advanced Polymer Materials Inc. (Montreal, Canada): Mn of PEG and PLA was 4,000 and 2,200 g/mol, respectively; PDI 1.05. A549 human lung adenocarcinoma cells were purchased from ATCC (Manassas, Va.) and grown in RPMI 1640 medium supplemented with 10% fetal bovine serum (FBS), 100 IU/mL penicillin, 100 μg/mL streptomycin, and 2 mML-glutamine in 5% CO2 incubator at 37° C.
Each was added into the wells to attain a final concentrations of 0.1, 1, 10, 100, and 1000 nM. The final level of DMSO in the medium was <0.1% at all drug levels. Cells cultured with diluted DMSO or PBS in medium were used as controls. […] The medium in each well was aspirated, and 100 μL of 20% (v/v) CellTiter-Blue reagent in serum free RPMI medium was added, followed by incubation at 37° C. in 5% CO2 atmosphere for 1.5 h. Fluorescence intensity was measured by a SpectraMax M2 plate reader (Molecular Devices, CA) with excitation and emission at 560 and 590 nm, respectively. The half maximal inhibitory drug concentration (IC50) was determined by using GraphPad Prism version 5.00 for Windows (GraphPad Software, CA).

[6] = test system: A549 xenograft tumor model; experiment: In vivo antitumor efficacy in A549 xenograft tumor model; set-up: species or system female athymic nude mice; settings: PEG-b-PLA micelles, 20 mg/kg, weekly tail vein injection, 3 weekly injections and one week off x 3 cycles
Description: All animal experiments were conducted under the protocol approved by Institutional Animal Care and Use Committee in University of Wisconsin-Madison in accordance with institutional and NIH guidance for the Care and Use of Laboratory Animals. 6-8 week-old female athymic nude mice (20-25 g each) were acquired from laboratory animal resources at School of Medicine and Public Health, University of Wisconsin-Madison. Mice were housed in ventilated cages with free access to water and food and acclimated for 1 week prior tumor cell injection. A549 cells (2×10^6 cells in 100 μL of serum-free RPMI 1640 medium) were harvested from sub-confluent cultures after trypsinization and were injected subcutaneously into the right flank of each mouse. […] Drug conjugates were administered via tail vein for 3 weekly injections, followed by 1-week rest period, totaling 3 cycles over a 12 weeks period. Body weight and tumor volume were monitored over the course of study. Tumor volume was calculated using the formula: V=(a×b^2)/2, where V is tumor volume, a is tumor length, b is tumor width.

A549 NSCLC cell line = experiment: IC50 values and combination index analysis of PTX, SEL and RAP alone and in combination; format: cell-based, human; settings: alone or combination at molar ratio PTX:SEL 2:3, PTX:RAP 2:1, SEL:RAP 3:1, PTX:SEL:RAP 2:3:1
Description: The cells were seeded into a 96-well plate at a seeding density of 1,500 cells/100 μL/well and cultured in RPMI 1640 medium at 37° C. in 5% CO2 incubator for 24 h. […] Each was added into the wells to attain a final concentrations of 0.1, 1, 10, 100, and 1000 nM. The final level of DMSO in the medium was <0.1% at all drug levels. Cells cultured with diluted DMSO or PBS in medium were used as controls. Drug treated cells were placed in an incubator at 5% CO2 at 37° C. for 72 h. The medium in each well was aspirated, and 100 μL of 20% (v/v) CellTiter-Blue reagent in serum free RPMI medium was added, followed by incubation at 37° C. in 5% CO2 atmosphere for 1.5 h. Fluorescence intensity was measured by a SpectraMax M2 plate reader (Molecular Devices, CA) with excitation and emission at 560 and 590 nm, respectively. The half maximal inhibitory drug concentration (IC50) was determined by using GraphPad Prism version 5.00 for Windows (GraphPad Software, CA).
In vitro anticancer activity of PTX, SEL, and RAP alone and in combination.

[7] = Table 1A, PEG-b-PLA micelles, drug to polymer ratio 1:10, initial level 1 mg, mean ± SD, n = 3
[8] = Table 2, PTX, SEL and RAP co-loaded as 3-in-1 micelle, initial level 1, 1.5, 0.5 mg, molar ratio 2:6:1, 21 mg PEG4000-b-PLA2200
[9] = Table 1C, PEG-b-PLA micelles, drug to polymer ratio 1:5
[10] = Table 1C, drug to polymer ratio 1:5
[11] = Table 1B, PEG-b-PLA micelles, drug to polymer ratio 1:1
[12] = Table 1B, PEG-b-PLA micelles, drug to polymer ratio 1:5
[13] = Table 1B, PEG-b-PLA micelles, drug to polymer ratio 1:10
[14] = Table 1B, drug to polymer ratio 1:1
[15] = Table 1B, drug to polymer ratio 1:5
[16] = Table 1B, drug to polymer ratio 1:10

solubility ([1]; PEG-b-PLA micelles in water, aqueous with cosolvent or surfactant or cyclodextrin, Table 1A, PEG-b-PLA micelles, drug to polymer ratio 1:10, initial level 1 mg, mean ± SD, n = 3, read-out: Apparent solubility): 900 µg/mL
solubility ([1]; PEG-b-PLA micelles in water, aqueous with cosolvent or surfactant or cyclodextrin, Table 1A, PEG-b-PLA micelles, drug to polymer ratio 3:5, initial level 6 mg, mean ± SD, n = 3, read-out: Apparent solubility): 1200 ± 100 µg/mL
Drug loading [1, 7]: 8.6% and 8.6 ± 1.1%
Drug loading efficiency [1, 7]: 93.8 ± 12.8%
Drug loading ([1]; Table 1A, PEG-b-PLA micelles, drug to polymer ratio 3:5, initial level 6 mg, mean ± SD, n = 3): 11.2% and 11.2 ± 1.1%
Drug loading [1, 8]: 4.3%
Loading efficiency [1, 8]: 100% and 104%
solubility ([1]; water, PTX without PEG-b-PLA micelles, read-out: water solubility): ~10 µg/mL (≈ 11.7 µM)
Particle size ([2]; Table 1A, drug to polymer ratio 1:10, initial level 1 mg, 10 mg PEG-b-PLA, mean ± SD, n = 3): 30.5 nm and 30.5 ± 0.3 nm
Particle size ([2]; Table 1A, drug to polymer ratio 3:5, initial level 6 mg, 10 mg PEG-b-PLA, mean ± SD, n = 3): 37.0 ± 5.7 nm
micelles precipitating in ([3]; PEG-b-PLA micelles at room temperature): less than 2 hours
precipitation of PTX during in vitro release ([4]; 9% drug loading, particle size 30 nm, PEG-b-PLA micelles): < 4 h
in vitro release from PEG-b-PLA micelles (in words) ([4]; PBS 10 mM, pH 7.4, 37° C., FIG. 4): rapidly released
IC50 (A549 NSCLC cell line): 7.4 ± 1.2 nM
Structure (SMILES): CC(=O)O[C@H]1C(=O)[C@@]2(C)[C@H]([C@H](OC(=O)c3ccccc3)[C@]3(O)C[C@H](OC(=O)[C@H](O)[C@@H](NC(=O)c4ccccc4)c4ccccc4)C(C)=C1C3(C)C)[C@]1(OC(C)=O)CO[C@@H]1C[C@@H]2O [PTX, paclitaxel]
IC50 [5]: 2 nM
tumor growth / tumor volume [6]: tumor growth inhibition during treatment over 71 days and delayed tumor growth

drug loading, loaded in micelles with free paclitaxel and free rapamycin ([1]; 3-drug co-loading): greater than 6 wt %
Drug loading [1, 9]: 1%
Drug loading efficiency [1, 9]: 5% and 5.1%
Drug loading [1, 8]: 6.3%
Loading efficiency [1, 8]: 100% and 101.7%
solubility ([1]; aqueous with cosolvent or surfactant or cyclodextrin, Table 1C, PEG-b-PLA micelles, drug to polymer ratio 1:5, read-out: Apparent solubility): 100 µg/mL
drug loading, loaded alone in micelles ([1]; free selumetinib alone): about 1 wt %
Particle size [2, 10]: 60.6 ± 0.6 nm
Stability [3, 10]: <2 h
time until SEL precipitated out of PEG-b-PLA micelles [3]: ≤ 5 min
time until SEL precipitated out of PEG-b-PLA micelles ([3]; listed as selumetinib): about 5 minutes
IC50 (A549 NSCLC cell line): 1729 ± 1.6 nM
Structure (SMILES): Cn1cnc2c(F)c(Nc3ccc(Br)cc3Cl)c(C(=O)NOCCO)cc21 [SEL, selumetinib]

solubility ([1]; PEG-b-PLA micelles, aqueous with cosolvent or surfactant or cyclodextrin, Table 1B, PEG-b-PLA micelles, drug to polymer ratio 1:1, read-out: Apparent solubility): 500 µg/mL
solubility ([1]; PEG-b-PLA micelles, aqueous with cosolvent or surfactant or cyclodextrin, Table 1B, PEG-b-PLA micelles, drug to polymer ratio 1:5, read-out: Apparent solubility): 900 µg/mL
solubility ([1]; PEG-b-PLA micelles, aqueous with cosolvent or surfactant or cyclodextrin, Table 1B, PEG-b-PLA micelles, drug to polymer ratio 1:10, read-out: Apparent solubility): 1400 µg/mL
Drug loading [1, 11]: 11.5%
Drug loading efficiency [1, 11]: 23%
Drug loading [1, 12]: 7.3%
Drug loading efficiency [1, 12]: 44.0%
Drug loading [1, 13]: 6.4%
Drug loading efficiency [1, 13]: 70.1%
Drug loading [1, 8]: 2.2%
Loading efficiency [1, 8]: 100% and 104.6%
Particle size [2, 14]: 59.5 ± 21.6 nm
Particle size [2, 15]: 36.2 ± 0.4 nm
Particle size [2, 16]: 37.7 ± 1.9 nm
Stability [3, 14]: <24 h
Stability [3, 15]: <24 h
Stability [3, 16]: <24 h
micelles released drug in ([3]; all PEG-b-PLA micelles containing unconjugated RAP): less than 24 hours
IC50 (A549 NSCLC cell line): 320.6 ± 2.3 nM
Structure (SMILES): CO[C@H]1C[C@@H]2CC[C@@H](C)[C@@](O)(O2)C(=O)C(=O)N2CCCC[C@H]2C(=O)O[C@H]([C@H](C)C[C@@H]2CC[C@@H](O)[C@H](OC)C2)CC(=O)[C@H](C)/C=C(\C)[C@@H](O)[C@@H](OC)C(=O)[C@H](C)C[C@H](C)/C=C/C=C/C=C/1C [RAP, rapamycin]
